Experiments:
Assay in all cases: biochemical
Set-up in all cases: Eurofins recombinant human kinase profiling, remaining kinase activity as % of control, 10 uM ATP
Details in all cases: ATP 10 uM; read-out: %Ctrl@10 μM
PKCα(h) = molecular target: T1, PKCα(h) (Homo sapiens, UniProt P17252)
T1 construct: gene PRKCA
Text: (§1) To rapidly determine the biological target of YL-939, we first tested the activity of YL-939 against a panel of 401 recombinant human protein kinases by using the kinase profiling assay provided by Eurofins, since kinases are often the key components in various signal pathways[35],[36]. […] We then carried out affinity-based proteome profiling assay (ABPP) coupled with bioimaging to identify the biological target of YL-939 (Fig. 4A). To this end, we designed and synthesized a photoaffinity probe, YL-939-1 (Fig. 4A and Supplementary Fig. 5), which is YL-939 attached by a photo-crosslinker (L3) that contains a photo-reactive group diazirine and a clickable alkyne handle.

Rse(h) = molecular target: T2, Rse(h) (Homo sapiens, UniProt Q06418)
T2 construct: gene TYRO3
Text: as §1

MuSK(h) = MuSK(h) (Homo sapiens, UniProt O15146)
Text: as §1

EphA1(h) = EphA1(h) (Homo sapiens, UniProt P21709)
Text: as §1

LIMK2(h) = LIMK2(h) (Homo sapiens, UniProt P53671)
Text: as §1

MARK3(h) = MARK3(h) (Homo sapiens, UniProt P27448)
Text: as §1

LKB1(h) = molecular target: T3, LKB1(h) (Homo sapiens, UniProt Q15831)
T3 construct: gene STK11
T3 sequence (Q15831 whole entry): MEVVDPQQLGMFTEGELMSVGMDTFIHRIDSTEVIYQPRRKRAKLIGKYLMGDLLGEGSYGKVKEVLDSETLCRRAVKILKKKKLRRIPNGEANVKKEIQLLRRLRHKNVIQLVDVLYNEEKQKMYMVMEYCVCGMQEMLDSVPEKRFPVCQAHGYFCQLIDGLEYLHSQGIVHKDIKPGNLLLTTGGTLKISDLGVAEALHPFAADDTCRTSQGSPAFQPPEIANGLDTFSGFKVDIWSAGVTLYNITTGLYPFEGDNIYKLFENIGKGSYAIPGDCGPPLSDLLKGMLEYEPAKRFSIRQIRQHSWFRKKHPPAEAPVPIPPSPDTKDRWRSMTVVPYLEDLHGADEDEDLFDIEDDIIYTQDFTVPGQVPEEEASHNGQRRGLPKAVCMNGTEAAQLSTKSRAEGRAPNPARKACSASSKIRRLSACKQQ
T3 sequence (Q7RTN6 whole entry partner): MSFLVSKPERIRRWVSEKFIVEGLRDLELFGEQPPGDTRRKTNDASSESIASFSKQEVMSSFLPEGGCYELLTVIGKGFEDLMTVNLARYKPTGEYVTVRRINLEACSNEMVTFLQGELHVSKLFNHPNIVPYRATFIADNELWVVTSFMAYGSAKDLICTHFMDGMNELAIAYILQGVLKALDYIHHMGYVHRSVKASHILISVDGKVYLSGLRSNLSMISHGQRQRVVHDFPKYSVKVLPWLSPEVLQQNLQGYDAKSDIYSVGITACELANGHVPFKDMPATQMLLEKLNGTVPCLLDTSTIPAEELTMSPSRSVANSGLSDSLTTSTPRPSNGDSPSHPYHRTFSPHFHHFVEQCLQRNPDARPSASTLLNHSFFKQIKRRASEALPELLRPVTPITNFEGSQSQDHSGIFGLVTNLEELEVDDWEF
T3 sequence (Q9Y376 whole entry partner): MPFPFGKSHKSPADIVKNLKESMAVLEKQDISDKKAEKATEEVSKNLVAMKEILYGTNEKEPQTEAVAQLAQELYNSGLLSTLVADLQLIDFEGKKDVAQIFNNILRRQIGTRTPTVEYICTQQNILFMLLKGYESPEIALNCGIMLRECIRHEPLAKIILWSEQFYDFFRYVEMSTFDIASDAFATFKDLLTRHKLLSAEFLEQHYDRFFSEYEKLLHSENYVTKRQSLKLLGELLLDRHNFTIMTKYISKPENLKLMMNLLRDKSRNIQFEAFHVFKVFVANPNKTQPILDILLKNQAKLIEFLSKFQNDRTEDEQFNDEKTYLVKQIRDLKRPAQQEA
Text: as §1

HIPK1(h) = HIPK1(h) (Homo sapiens, UniProt Q86Z02)
Text: as §1

PRK2(h) = molecular target: T4, PRK2(h) (Homo sapiens, UniProt Q16513)
T4 construct: gene PKN2
Text: as §1

CaMKK2(h) = CaMKK2(h) (Homo sapiens, UniProt Q96RR4)
Text: as §1

CaMKIIβ(h) = molecular target: T5, CaMKIIβ(h) (Homo sapiens, UniProt Q13554)
T5 construct: gene CAMK2B
T5 sequence (Q13554 whole entry): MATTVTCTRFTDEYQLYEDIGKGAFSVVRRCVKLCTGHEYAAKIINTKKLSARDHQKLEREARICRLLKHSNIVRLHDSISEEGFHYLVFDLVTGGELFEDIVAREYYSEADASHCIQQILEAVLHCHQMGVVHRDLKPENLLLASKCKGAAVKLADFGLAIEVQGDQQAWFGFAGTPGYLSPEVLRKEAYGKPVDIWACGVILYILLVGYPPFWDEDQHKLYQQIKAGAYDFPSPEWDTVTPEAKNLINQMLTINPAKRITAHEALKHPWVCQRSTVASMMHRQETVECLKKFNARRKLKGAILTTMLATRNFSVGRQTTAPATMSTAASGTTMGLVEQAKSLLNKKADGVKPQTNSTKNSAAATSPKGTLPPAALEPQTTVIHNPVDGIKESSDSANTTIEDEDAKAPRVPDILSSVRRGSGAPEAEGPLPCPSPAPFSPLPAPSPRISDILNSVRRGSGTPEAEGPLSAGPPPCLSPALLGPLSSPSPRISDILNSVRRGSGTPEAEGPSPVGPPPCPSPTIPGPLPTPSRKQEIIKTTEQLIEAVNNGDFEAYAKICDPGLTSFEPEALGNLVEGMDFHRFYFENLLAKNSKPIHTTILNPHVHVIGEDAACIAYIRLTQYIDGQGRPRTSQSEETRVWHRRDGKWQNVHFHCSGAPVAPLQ
Text: as §1

CDKL4(h) = CDKL4(h) (Homo sapiens, UniProt Q5MAI5)
Text: as §1

CDK4/cyclinD3(h) = CDK4/cyclinD3(h) (Homo sapiens, UniProt P11802)
Chain of CDK4/cyclinD3(h) (P11802 whole entry): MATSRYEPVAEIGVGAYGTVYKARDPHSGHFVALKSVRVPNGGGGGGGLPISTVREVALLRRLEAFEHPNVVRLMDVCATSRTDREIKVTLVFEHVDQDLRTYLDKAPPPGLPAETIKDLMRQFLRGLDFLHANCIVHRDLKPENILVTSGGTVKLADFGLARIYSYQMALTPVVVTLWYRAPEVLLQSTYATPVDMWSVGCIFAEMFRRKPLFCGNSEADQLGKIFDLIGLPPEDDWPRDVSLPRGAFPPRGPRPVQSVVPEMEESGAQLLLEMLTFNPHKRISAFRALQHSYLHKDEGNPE
Chain of CDK4/cyclinD3(h) (P30281 whole entry partner): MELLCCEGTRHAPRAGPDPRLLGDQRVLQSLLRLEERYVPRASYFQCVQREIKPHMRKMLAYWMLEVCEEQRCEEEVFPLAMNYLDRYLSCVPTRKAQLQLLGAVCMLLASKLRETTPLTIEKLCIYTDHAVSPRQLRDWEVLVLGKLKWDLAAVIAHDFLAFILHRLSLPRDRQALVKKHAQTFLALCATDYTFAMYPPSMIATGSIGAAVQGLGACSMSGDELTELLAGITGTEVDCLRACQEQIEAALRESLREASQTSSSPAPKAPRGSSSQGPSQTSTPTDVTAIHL
Text: as §1

Wee1(h) = Wee1(h) (Homo sapiens, UniProt P30291)
Text: as §1

cSRC(h) = molecular target: T6, cSRC(h) (Homo sapiens, UniProt P12931)
T6 construct: gene SRC
T6 sequence (P12931 whole entry): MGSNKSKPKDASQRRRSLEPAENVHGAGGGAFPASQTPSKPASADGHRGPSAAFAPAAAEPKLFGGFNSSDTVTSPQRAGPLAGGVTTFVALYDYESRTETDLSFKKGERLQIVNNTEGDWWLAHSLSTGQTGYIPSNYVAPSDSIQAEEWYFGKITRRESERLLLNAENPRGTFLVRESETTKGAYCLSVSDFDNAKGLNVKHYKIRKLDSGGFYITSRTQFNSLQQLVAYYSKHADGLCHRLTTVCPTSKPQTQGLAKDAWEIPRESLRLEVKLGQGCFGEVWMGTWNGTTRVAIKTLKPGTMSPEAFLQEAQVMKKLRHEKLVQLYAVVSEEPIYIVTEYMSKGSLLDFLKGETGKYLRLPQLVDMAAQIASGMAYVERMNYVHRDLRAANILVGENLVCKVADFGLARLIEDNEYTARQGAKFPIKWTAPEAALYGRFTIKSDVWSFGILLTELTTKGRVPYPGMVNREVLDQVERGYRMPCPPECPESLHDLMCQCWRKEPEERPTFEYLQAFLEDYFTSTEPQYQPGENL
Text: as §1

Met(h) = Met(h) (Homo sapiens, UniProt P08581)
Text: as §1

Plk4(h) = Plk4(h) (Homo sapiens, UniProt O00444)
Chain of Plk4(h) (O00444 whole entry): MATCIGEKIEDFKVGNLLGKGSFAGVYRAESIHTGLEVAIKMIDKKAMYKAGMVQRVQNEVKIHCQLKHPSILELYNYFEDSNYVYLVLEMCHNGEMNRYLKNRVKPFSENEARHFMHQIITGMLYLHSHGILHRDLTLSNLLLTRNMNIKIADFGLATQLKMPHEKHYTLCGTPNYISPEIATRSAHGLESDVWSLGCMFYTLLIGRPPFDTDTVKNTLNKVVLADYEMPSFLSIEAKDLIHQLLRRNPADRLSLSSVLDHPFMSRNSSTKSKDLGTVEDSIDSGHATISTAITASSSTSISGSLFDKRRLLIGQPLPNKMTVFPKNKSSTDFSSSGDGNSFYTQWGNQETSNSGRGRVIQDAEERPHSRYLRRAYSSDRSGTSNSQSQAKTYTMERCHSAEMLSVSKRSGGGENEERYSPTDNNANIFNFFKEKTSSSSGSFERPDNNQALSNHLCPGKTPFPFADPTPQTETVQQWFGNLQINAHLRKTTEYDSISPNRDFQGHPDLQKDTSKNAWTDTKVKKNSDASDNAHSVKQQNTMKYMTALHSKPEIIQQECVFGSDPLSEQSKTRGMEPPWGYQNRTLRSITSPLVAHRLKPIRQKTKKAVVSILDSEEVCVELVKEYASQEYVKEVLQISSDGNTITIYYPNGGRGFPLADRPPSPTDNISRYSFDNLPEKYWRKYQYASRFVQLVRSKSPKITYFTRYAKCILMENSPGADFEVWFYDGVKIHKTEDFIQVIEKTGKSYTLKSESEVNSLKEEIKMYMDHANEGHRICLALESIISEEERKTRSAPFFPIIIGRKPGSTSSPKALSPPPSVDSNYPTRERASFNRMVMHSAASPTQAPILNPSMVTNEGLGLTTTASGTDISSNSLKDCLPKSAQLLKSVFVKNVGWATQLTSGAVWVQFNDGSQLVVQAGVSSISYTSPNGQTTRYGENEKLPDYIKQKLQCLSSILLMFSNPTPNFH
Text: as §1

PAK4(h) = PAK4(h) (Homo sapiens, UniProt O96013)
Text: as §1

Flt3(D835Y)(h) = Flt3(D835Y)(h) (Homo sapiens, UniProt P36888, D835Y)
Text: as §1

STK32C(h) = STK32C(h) (Homo sapiens, UniProt Q86UX6)
Text: as §1

Tie2 (h) = molecular target: T7, Tie2 (h) (Homo sapiens, UniProt Q02763)
T7 construct: gene TEK
Text: as §1

MAP4K4(h) = MAP4K4(h) (Homo sapiens, UniProt O95819)
Text: as §1

FGFR2(h) = FGFR2(h) (Homo sapiens, UniProt P21802)
Chain of FGFR2(h) (P21802 whole entry): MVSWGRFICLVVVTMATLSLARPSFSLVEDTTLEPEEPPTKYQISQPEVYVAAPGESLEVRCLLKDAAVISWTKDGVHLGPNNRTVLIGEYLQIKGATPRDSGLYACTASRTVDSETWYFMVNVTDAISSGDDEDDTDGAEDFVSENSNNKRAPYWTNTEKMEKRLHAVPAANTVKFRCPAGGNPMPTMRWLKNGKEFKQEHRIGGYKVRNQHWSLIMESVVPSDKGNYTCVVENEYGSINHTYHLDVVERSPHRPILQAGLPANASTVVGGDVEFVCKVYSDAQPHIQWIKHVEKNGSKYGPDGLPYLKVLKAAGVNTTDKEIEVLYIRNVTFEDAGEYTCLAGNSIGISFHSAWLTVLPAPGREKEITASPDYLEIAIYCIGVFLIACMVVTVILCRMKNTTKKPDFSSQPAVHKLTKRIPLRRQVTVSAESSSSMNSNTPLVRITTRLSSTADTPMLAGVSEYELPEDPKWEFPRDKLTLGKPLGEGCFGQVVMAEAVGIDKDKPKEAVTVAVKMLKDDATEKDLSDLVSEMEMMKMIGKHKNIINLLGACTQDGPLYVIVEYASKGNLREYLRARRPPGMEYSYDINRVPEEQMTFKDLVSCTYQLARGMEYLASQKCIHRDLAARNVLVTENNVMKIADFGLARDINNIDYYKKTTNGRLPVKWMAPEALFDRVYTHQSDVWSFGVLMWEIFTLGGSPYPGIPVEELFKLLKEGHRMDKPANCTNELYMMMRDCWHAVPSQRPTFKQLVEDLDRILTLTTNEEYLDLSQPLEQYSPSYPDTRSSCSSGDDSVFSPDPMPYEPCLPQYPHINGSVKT
Text: as §1

Q: `C1=C(c2nc(-c3cnn(C4CCNCC4)c3)cn3cc(-c4ccccc4)nc23)CCOC1` [YL-939] was tested. Which remaining activity at 10 µM (PKCα(h)) did it give?
A: 104%

Q: What about the remaining activity at 10 µM (Rse(h)) of the same compound?
A: 98%

Q: And the remaining activity at 10 µM (MuSK(h))?
A: 88%

Q: What about the remaining activity at 10 µM (EphA1(h)) of the same compound?
A: 109%

Q: And the remaining activity at 10 µM (LIMK2(h))?
A: 85%

Q: What about the remaining activity at 10 µM (MARK3(h)) of the same compound?
A: 80%

Q: What about the remaining activity at 10 µM (LKB1(h)) of the same compound?
A: 87%

Q: And the remaining activity at 10 µM (HIPK1(h))?
A: 97%

Q: What about the remaining activity at 10 µM (PRK2(h)) of the same compound?
A: 89%

Q: And the remaining activity at 10 µM (CaMKK2(h))?
A: 83%

Q: What about the remaining activity at 10 µM (CaMKIIβ(h)) of the same compound?
A: 70%

Q: And the remaining activity at 10 µM (CDKL4(h))?
A: 76%

Q: What about the remaining activity at 10 µM (CDK4/cyclinD3(h)) of the same compound?
A: 80%

Q: What about the remaining activity at 10 µM (Wee1(h)) of the same compound?
A: 99%

Q: What about the remaining activity at 10 µM (cSRC(h)) of the same compound?
A: 78%

Q: And the remaining activity at 10 µM (Met(h))?
A: 54%

Q: And the remaining activity at 10 µM (Plk4(h))?
A: 88%

Q: What about the remaining activity at 10 µM (PAK4(h)) of the same compound?
A: 97%

Q: What about the remaining activity at 10 µM (Flt3(D835Y)(h)) of the same compound?
A: 95%

Q: And the remaining activity at 10 µM (STK32C(h))?
A: 82%

Q: What about the remaining activity at 10 µM (Tie2 (h)) of the same compound?
A: 81%

Q: What about the remaining activity at 10 µM (MAP4K4(h)) of the same compound?
A: 86%

Q: And the remaining activity at 10 µM (FGFR2(h))?
A: 95%

Source: publication PMC9719519, “Non-classical ferroptosis inhibition by a small molecule targeting PHB2” (Nature Communications, 2022)
